Test results from patent US4871771A, “Leukotriene antagonists” (SmithKline Beckman Corporation, priority 1988, dated 1989).

Experiments:
[1] = molecular target: T1, [^3 H]-LTB4 binding sites on human U937 cell membranes (Homo sapiens, UniProt Q15722); test: Receptor binding affinity: competition for [3H]-LTB4 binding sites on human U937 cell membranes; details: [3H]-LTB4 about 0.2 nM, 25°, 30 minutes
T1 construct: Harvested U937 cells were washed with 50 mM Tris-HCl; endogenous in cells; host or cells: U937 cells (membrane-enriched fraction)

[2] = molecular target: T2, LTB4 Induced Ca^2 + flux (U937 cells) (Homo sapiens, UniProt Q15722); test: LTB4 induced calcium mobilization (Ca2+ flux) in U937 cells measured with fura-2; format: cell-based
T2 construct: endogenous in cells; host or cells: U937 cells, DMSO-differentiated, intact
Protocol: The methods employed were as follows.
Cells were grown both in T-flasks and in Spinner culture.
Harvested cells were resuspended at 2×10^6 cells/ml in Krebs Ringer Hensilet buffer containing 0.1% BSA (RIA grade), 1.1 mM MgSO4, 1.0 mM CaCl2 and 5 mM HEPES (pH 7.4, buffer B). The diacetomethoxy ester of fura-2 (fura-2/AM) was added to a final concentration of 2 uM and cells incubated in the dark for 30 minutes at 37° C. The cells were centrifuged at 800×g for 10 minutes and resuspended at 2×10^6 cells/ml in fresh buffer B and incubated at 37° C. for 20 minutes to allow for complete hydrolysis of entrapped ester. The cells were centrifuged at 800×g for 10 minutes and resuspended in cold fresh buffer B at 5×10^6 cells/ml. Cells were maintained on ice in the dark until used for fluorescent measurements.
The fluorescence of fura-2 containing U937 cells was measured with a fluorometer designed by the Johnson Foundation Biomedical Instrumentation Group. Fluorometer is equipped with temperature control and a magnetic stirrer under the cuvette holder. […] All experiments were performed at 37° C. with constant mixing.
U937 cells were diluted with fresh buffer to a concentration of 1×10^6 cells/ml and maintained in the dark on ice. Aliquots (2 ml) of the cell suspension were put into 4 ml cuvettes and the temperature brought up to 37° C. (maintained in 37° C. water bath for 10 min). Cuvettes were transferred to the fluorometer and fluorescence measured for about one minute before addition of stimulants or antagonists and followed for about 2 minutes post stimulus. Agonists and antagonists were added as 2 ul aliquots.
Antagonists were added first to the cells in the fluorometer in order to detect potential agonist activity. […] [Ca^2+ ]i was calculated using the following formula: [formula] F was the maximum relative fluorescence measurement of the sample. Fmax was determined by lysing the cells with 10 ul of 10% Triton X-100 (final Concentration 0.02%). After Fmax was determined 67 ul of 100 mM EGTA solution (pH 10) was added to totally chelate the Ca^2+ and quench the fura-2 signal and obtain the Fmin. […] The Ki for calcium mobilization was determined using the formula: [formula]

T2 sequence (Q15722 whole entry): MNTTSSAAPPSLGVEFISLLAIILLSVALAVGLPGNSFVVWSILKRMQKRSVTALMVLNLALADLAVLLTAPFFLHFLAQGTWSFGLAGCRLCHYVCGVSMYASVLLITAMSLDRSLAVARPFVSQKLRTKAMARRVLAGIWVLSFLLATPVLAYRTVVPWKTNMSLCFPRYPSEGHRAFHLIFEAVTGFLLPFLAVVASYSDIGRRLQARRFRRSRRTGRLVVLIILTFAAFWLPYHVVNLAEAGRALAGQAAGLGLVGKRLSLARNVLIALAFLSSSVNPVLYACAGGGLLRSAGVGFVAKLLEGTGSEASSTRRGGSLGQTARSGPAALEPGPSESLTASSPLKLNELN
T1 sequence (Q15722 whole entry): as above

| Compound | Ki [1] [µM] | Ki [2] [µM] |
| --- | --- | --- |
| CCCCCCCCCCCOc1ccc([N+](=O)[O-])cc1C(SCCC(=O)O)SCCC(=O)O | 2.2 | 5 |
| C#CCCCCCCCCCOc1ccccc1C(SCCC(=O)O)SCCC(=O)O | 10 | – |
| CCCCCCCCCCCOc1ccccc1C(SCCC(=O)O)SCCC(=O)O | 5.3 | – |
| O=C(O)CCSC(SCCC(=O)O)c1ccccc1CCCCCCCSc1ccc(Br)cc1 | 2.8 | 6.7 |
| CCCCCCCCCCCOc1ccc(Br)cc1C(SCCC(=O)O)SCCC(=O)O | 4.2 | 5.6 |
| CCCCCCCCCC/C=C\c1ccccc1C(SCCC(=O)O)SCCC(=O)O | 7.3 | – |
| O=C(O)CCSC(SCCC(=O)O)c1ccccc1CCCCCCCCCCCC(F)(F)F | – | 7.8 |
| O=C(O)CCSC(SCCC(=O)O)c1ccccc1CCCCCCCSc1ccc(F)cc1 | 3.3 | 6.4 |
| CCCCCCCCCCCCc1ccccc1C(SCCC(=O)O)SCCC(=O)O | 6.5 | – |
| CCCCCCCCCCCCc1ccccc1C(SCCC(=O)O)[S+]([O-])CCC(=O)O (stereo not drawn) | 5.3 | – |
| CCCCCCCCCCC#Cc1ccccc1C(SCCC(=O)O)SCCC(=O)O | 7 | – |
| COc1ccc(SCCCCCCCc2ccccc2C(SCCC(=O)O)SCCC(=O)O)cc1 | 1.2 | 7.6 |
| CCCCCCCCCCCOc1ccc(O)cc1C(SCCC(=O)O)SCCC(=O)O | 6 | – |
| CCCCCCCCCC/C=C/c1ccccc1C(SCCC(=O)O)SCCC(=O)O | 4.3 | – |

The next lines start with the values.

| Ki [1] [µM] | Ki [2] [µM] | Compound |
| --- | --- | --- |
| 9.6 | – | O=C(O)CCSC(SCCC(=O)O)c1cc(C(F)(F)F)ccc1CCCCCCCCc1ccccc1 |
| 5.3 | – | O=C(O)CCSC(SCCC(=O)O)c1ccccc1OCCCCCCCc1ccccc1 |
| 4.5 | – | O=C(O)CCSC(SCCC(=O)O)c1ccccc1CCCCCCc1ccccc1 |
| 2.1 | 5.2 | O=C(O)CCSC(SCCC(=O)O)c1cccc(CCCCCCCCc2ccccc2)c1 |
| 1.3 | 8.7 | O=C(O)CCSC(SCCC(=O)O)c1ccc(C(F)(F)F)cc1CCCCCCCCc1ccccc1 |
| 11 | 4.8 | O=C(O)CCSC(SCCC(=O)O)c1ccccc1CCCCCCCCCCc1ccccc1 |
| 4.4 | 7 | O=C(O)CCSC(SCCC(=O)O)c1ccccc1CCCCCCCCc1ccccc1 |
